Holding throughout (format): cell-based
The target in series [1] is T1, PDK1 (phosphoinositide-dependent kinase 1) (Homo sapiens, UniProt O15530).
T1 construct: endogenous in cells; host or cells: SU-DHL-8 (ATCC CRL-2961)
T1 sequence (O15530 1-556): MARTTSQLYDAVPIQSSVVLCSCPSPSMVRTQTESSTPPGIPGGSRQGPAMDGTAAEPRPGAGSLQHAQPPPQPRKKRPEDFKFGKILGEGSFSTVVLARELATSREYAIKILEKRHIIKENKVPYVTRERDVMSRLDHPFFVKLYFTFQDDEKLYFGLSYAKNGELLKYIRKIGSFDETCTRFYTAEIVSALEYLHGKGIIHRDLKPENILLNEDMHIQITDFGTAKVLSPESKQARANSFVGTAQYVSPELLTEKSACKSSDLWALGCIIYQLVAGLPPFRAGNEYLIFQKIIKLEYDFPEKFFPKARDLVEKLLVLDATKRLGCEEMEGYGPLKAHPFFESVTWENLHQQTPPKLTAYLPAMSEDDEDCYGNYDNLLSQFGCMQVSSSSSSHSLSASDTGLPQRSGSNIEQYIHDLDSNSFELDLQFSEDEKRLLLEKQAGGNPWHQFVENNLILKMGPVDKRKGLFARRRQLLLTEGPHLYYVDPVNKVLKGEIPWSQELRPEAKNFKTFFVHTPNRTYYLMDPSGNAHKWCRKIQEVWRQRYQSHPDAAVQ
The series can be described thus: PDK1 phosphorylation (pPDK1) by flow cytometry in SU-DHL-8 cells. To be noted: SU-DHL-8, 24 hours, vs control group, FIG. 3. As to the method:
After stabilizing the cells, the compound of the present invention was added, and the cells were cultured for 24 hours.
After drug treatment, the cells were harvested, and the Fc receptor blocking process was performed. The cells were then fixed and permeabilized using the Intracellular Staining Kit (Cat. No. BD554715) from BD Biosciences. Subsequently, the intracellular pPDK1 was stained using the pPDK1-PE fluorescently labeled antibody (BD Biosciences).
Referring to the figure, the vertical axis represents the phosphorylation level of PDK1 (phospho-PDK1 expression level), and the horizontal axis denotes the concentration-dependent treatment conditions of each compound.

Series [2] relates to Human Head and Neck cancer, Fadu. Kind of series: Relative cell viability CCK-8, Fadu. To be noted: Fadu cells, relative to untreated cells. The procedure:
Human-derived head and neck cancer cell line Fadu and osteosarcoma cell line Saos-2 were cultured in MEM medium containing 10% FBS, 100 U/mL penicillin, and 100 μg/mL streptomycin.
Following stabilization, the cells were harvested using Trypsin-EDTA treatment, centrifuged at 1,200 rpm for 3 minutes, the supernatant was removed, and the cells were resuspended in the same medium. They were then seeded into a 96-well plate (Costar 96-well cell culture plate, Corning) at 100 μL per well, and the conditions were adjusted as indicated in Table 5.
The cells were cultured in a 5% CO2 incubator at 37° C. for 24 hours, and after stabilization of the cells, each plate was washed with 200 μL of PBS per well and treated with 50 μL of culture medium per well.
After that, 10 μL of CCK-8 was added to each well, and the plate was incubated again at 37° C. in a 5% CO2 incubator for 2 hours.
In other words, when the survival rate of untreated cells (DMSO) is set at 100%, the relative cell survival rate in each group treated with the drug at different concentrations is indicated.

Series [3] deals with T cells isolated from mouse spleens. The series can be described thus: T cell proliferation inhibition (CFSE flow cytometry, anti-CD3/anti-CD28 stimulation). To be noted: mouse spleen T cells, 3 days; for inhibition at 0.01 µM / inhibition at 0.1 µM / inhibition at 1 µM / inhibition at 10 µM / inhibition at 30 µM / inhibition at 50 µM: Mus musculus, T-cell, 72 h, read-out: Proliferation inhibition rate (%). An outline of the steps:
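Splenic T cells from 7-week-old C57BL/6 mice were MACS-isolated, CFSE-labelled, seeded at 2×10^5 cells/well and activated with anti-CD3/anti-CD28 (0.5 μg/mL each). Compound at 10 nM–50 μM (six levels, triplicate) was present for 3 days at 37 °C before flow cytometric readout of proliferation inhibition rate.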

For series [4], the system named is Human B Lymphocyte cell line, SU-DHL-8. The series can be described thus: Relative cell viability CCK-8, SU-DHL-8. An outline of the steps:
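Cells grown in RPMI-1640 with 10% FBS, treated with compound at several concentrations, then given CCK-8 for 4 h at 37° C. Viability expressed as percent of DMSO-treated cells.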

The mark [5] stands for this setting: 30 μM, 48 hours, untreated (DMSO) = 100%.
[6] abbreviates: 50 μM, 48 hours, untreated (DMSO) = 100%.
The mark [7] stands for this setting: Homo sapiens, SU-DHL-8, 48 h, read-out: Relative cell viability (%), SU-DHL-8, 1 μM, 48 hours, untreated (DMSO) = 100%.
Where [8] appears, read: Homo sapiens, SU-DHL-8, 48 h, read-out: Relative cell viability (%), SU-DHL-8, 10 μM, 48 hours, untreated (DMSO) = 100%.

From patent publication US20260183274A1, “PDK1 REGULATORY COMPOUND AND COMPOSITION CONTAINING THE SAME” (PROVIBIO CO., LTD., priority 2024, published 2026) come the findings set out here.

Entries after “also recorded” stand apart in the source; their conditions may differ. Like-named read-outs stand apart in the source and are kept apart here.

For the compound `CC1(C)CN(CCCCCCCCCCCCC(=O)Nc2nc(N)c3[nH]cnc3n2)CCO1` [Compound 11, 12-[4-(2,2-dimethylmorpholin-4-yl)]dodecyl-N-(6-aminopurine-2-yl) carboxamide], the “Inhibition of PDK1 phosphorylation (phospho-PDK1 expression level)” value (shortened to “Inhibition of PDK1 phosphorylation”) in series [1] (listed as GO86) is “stronger PDK1 inhibition; also recorded: high inhibitory effects even at low concentrations”. Besides, the “Relative cell viability (%)” value came to 2.08% in series [2] (1 μM), 9.68% in series [2] (10 μM), 8.51% in series [2] (30 μM) and 4.78% in series [2] (50 μM). The “Proliferation inhibition rate (%)” value in series [3] (compound 10 nM) was −25.47%; in series [3] (compound 100 nM) it was 100.00%; in series [3] (compound 1 μM) it was 100.00%; in series [3] (compound 10 μM), 100.00%; in series [3] (compound 30 μM), 100.00%; in series [3] (compound 50 μM), 100.00%. Also, the “Relative cell viability (%), SU-DHL-8” value in series [4] (1 μM, 48 hours, untreated (DMSO) = 100%) is 7.63%; in series [4] (10 μM, 48 hours, untreated (DMSO) = 100%) it was 6.09%; in series [4] (setting [5]), 4.82%; in series [4] (setting [6]), 3.29%.
For `Nc1ncccc1C(=O)NCCCCCCCCCCCCN1CCNCC1` [Compound 14, 2-Amino-N-(12-(piperazin-1-yl)dodecyl)nicotinamide], in series [1] (listed as GO88), the “Inhibition of PDK1 phosphorylation” value is “stronger PDK1 inhibition; also recorded: high inhibitory effects even at low concentrations”. Moreover, the “Relative cell viability (%)” value in series [2] (1 μM, listed as GO88, 1 µM) is reported as 7.05%; in series [2] (10 μM, listed as GO88, 10 µM), 73.25%; in series [2] (30 μM, listed as GO88, 30 µM) it was 57.64%; in series [2] (50 μM, listed as GO88, 50 µM) it was 7.08%. In addition, the “Proliferation inhibition rate (%)” value worked out at 17.83% in series [3] (compound 10 nM, listed as GO88, 0.01 µM); 85.09% in series [3] (compound 10 μM, listed as GO88, 10 µM); 98.95% in series [3] (compound 30 μM, listed as GO88, 30 µM). Moreover, the “Relative cell viability (%), SU-DHL-8” value in series [4] (human, 48 h, 1 µM) came out at 9.28%; in series [4] (human, 48 h, 10 µM), 3.31%; in series [4] (human, 48 h, 30 µM) it was 1.16%; in series [4] (human, 48 h, 50 µM) it was 0.32%.
For orientation: viability means a per cent measure of how many cells are alive, often set against a control. In turn, `Nc1nc(NC(=O)CCCCCCCCCCCCN2CCN(CCO)CC2)nc2nc[nH]c12` [Compound 15, 12-[4-(2-hydroxyethyl)piperazin-1-yl]dodecyl-N-(6-aminopurine-2-yl) carboxamide] had a viability at 1 µM in series [2] (Homo sapiens, FaDu, 1 μM) of 4.15%. Besides, the viability at 10 µM in series [2] (Homo sapiens, FaDu, 10 μM) is 29.3%. For the same compound, the viability at 30 µM in series [2] (Homo sapiens, FaDu, 30 μM) is 41.5%. The compound further gave a viability at 50 µM in series [2] (Homo sapiens, FaDu, 50 μM) of 9.44%. The inhibition at 0.01 µM in series [3] (compound 10 nM) is -0.4%. The inhibition at 0.1 µM in series [3] (compound 100 nM) is 100%. Further, the inhibition at 1 µM in series [3] (compound 1 μM) stood at 100%. Also, the inhibition at 10 µM in series [3] (compound 10 μM) turned out to be 100%. Besides, the inhibition at 30 µM in series [3] (compound 30 μM) was found to be 100%. Besides, the inhibition at 50 µM in series [3] (compound 50 μM) was 100%.
Consider `Nc1ncccc1C(=O)NCCCCCCCCCCCCN1CCOCC1` [Compound 2, 2-Amino-N-(12-morpholin-4-yl-dodecyl)-nicotinamide], for which the “Inhibition of PDK1 phosphorylation” value in series [1] (listed as GO48) is “stronger PDK1 inhibition; also recorded: high inhibitory effects even at low concentrations”. The inhibition at 0.01 µM in series [3] (compound 10 nM) is -1.47%. The inhibition at 0.1 µM in series [3] (compound 100 nM) was found to be 0%. In addition, the inhibition at 1 µM in series [3] (compound 1 μM) turned out to be 0%. For the same compound, in series [3] (compound 10 μM), the inhibition at 10 µM was determined as 100%. In addition, the inhibition at 30 µM in series [3] (compound 30 μM) amounted to 100%. The inhibition at 50 µM in series [3] (compound 50 μM) turned out to be 100%. Moreover, in series [4] (setting [7]), the viability at 1 µM is 31%. In addition, the viability at 10 µM in series [4] (setting [8]) was 26%. Further, in series [4] (Homo sapiens, SU-DHL-8, 48 h, read-out: Relative cell viability (%), SU-DHL-8, 30 μM, 48 hours, untreated (DMSO) = 100%), the viability at 30 µM was 25.3%. For the same compound, the viability at 50 µM in series [4] (Homo sapiens, SU-DHL-8, 48 h, read-out: Relative cell viability (%), SU-DHL-8, 50 μM, 48 hours, untreated (DMSO) = 100%) turned out to be 24.7%.
Consider `Nc1ncccc1C(=O)NCCCCCCCCCCCCN1CCNCC1` [Compound 5, 2-Amino-N-(12-(piperazin-1-yl)dodecyl)-nicotinamide], for which the “Relative cell viability (%)” value in series [2] (10 μM, listed as GO78, 10 µM) came out at 6.63%; in series [2] (30 μM, listed as GO78, 30 µM) it was 4.93%; in series [2] (50 μM, listed as GO78, 50 µM), 0.99%. Moreover, the viability at 1 µM in series [2] (Homo sapiens, FaDu, 1 μM) worked out at 4.18%; in series [4] (setting [7]), 8.8%. The inhibition at 0.1 µM in series [3] (compound 100 nM) turned out to be 100%. In series [3] (compound 1 μM), the inhibition at 1 µM is 100%. For the same compound, the inhibition at 10 µM in series [3] (compound 10 μM) stood at 100%. The inhibition at 30 µM in series [3] (compound 30 μM) worked out at 100%. In addition, the inhibition at 50 µM in series [3] (compound 50 μM) amounted to 100%. Besides, the “Proliferation inhibition rate (%)” value in series [3] (compound 10 nM, listed as GO78, 0.01 µM) is given as −27.49%. The viability at 10 µM in series [4] (setting [8]) is 5.87%. Besides, the “Relative cell viability (%), SU-DHL-8” value in series [4] (human, 48 h, 30 µM) stood at 4.63%; in series [4] (human, 48 h, 50 µM) it was 3.67%.
As to `Nc1ncccc1C(=O)NCCCCCCCCCCCCF` [Compound 57, 2-Amino-N-(12-fluoro-dodecyl)-nicotinamide], in series [1], the “Inhibition of PDK1 phosphorylation” value was “exhibited an inhibitory effect on PDK1 phosphorylation”. Further, the inhibition at 30 µM in series [3] (compound 30 μM) amounted to 100%. Besides, the inhibition at 50 µM in series [3] (compound 50 μM) came out at 100%. For the same compound, the “Proliferation inhibition rate (%)” value is on record as −9.32% in series [3] (compound 10 nM), −5.28% in series [3] (compound 100 nM) and 16.20% in series [3] (compound 1 μM). Also, the entries for the “Relative cell viability (%), SU-DHL-8” value in series [4] (setting [5]) and in series [4] (setting [6]) were 15.63% and 11.94%, respectively. Moreover, the viability at 1 µM in series [4] (Homo sapiens, SU-DHL-8, 48 h, 1 μM, 48 hours, untreated (DMSO) = 100%, read-out: Relative cell viability (%), SU-DHL-8) came out at 19%. The viability at 10 µM in series [4] (Homo sapiens, SU-DHL-8, 48 h, 10 μM, 48 hours, untreated (DMSO) = 100%, read-out: Relative cell viability (%), SU-DHL-8) was 18.8%.
